Laboratory results: patent US12532884B2, “Fungicidal compositions” (SYNGENTA CROP PROTECTION AG, priority 2020, dated 2026)
Read-outs that look alike come from different tables or passages of the source.

Legend:
[1] = system: Phakopsora pachyrhizi; assay: Example D: preventative activity against Phakopsora pachyrhizi on soybean (whole plants sprayed, leaf disks inoculated); assay type: in vivo; details: applied alone; for inhibition at 450 g/ha / inhibition at 900 g/ha: Phakopsora pachyrhizi, foliar, read-out: Observed Activity (% of untreated)
From the text: (§1) Certain mixture compositions comprising a compound of formula (I) described above may show a synergistic effect. This occurs whenever the action of an active ingredient combination is greater than the sum of the actions of the individual components. The action to be expected E for a given active ingredient combination obeys the so-called COLBY formula and can be calculated as follows (COLBY, S. R. “Calculating synergistic and antagonistic responses of herbicide combination”. Weeds, Vol. 15, pages 20-22; 1967): • ppm=milligrams of active ingredient (=a.i.) per liter of spray mixture • X=% action by active ingredient A) using p ppm of active ingredient • Y=% action by active ingredient B) using q ppm of active ingredient.
(§2) According to COLBY, the expected (additive) action of active ingredients A)+B) using p+q ppm of active ingredient is:
(§3) If the action actually observed (O) is greater than the expected action (E), then the action of the combination is super-additive, i.e. there is a synergistic effect. In mathematical terms, synergism corresponds to a positive value for the difference of (O-E). In the case of purely complementary addition of activities (expected activity), said difference (O-E) is zero. A negative value of said difference (O-E) signals a loss of activity compared to the expected activity.
Whole soybean plants are treated with the recited active ingredients 4 weeks after planting. 1 day after spraying leaf disks are cut from the first trifoliate leaf. Five repetitions at each rate are conducted. The leaf disks are inoculated with Phakopsora pachyrhizi (Asian soybean rust) one day after treatment. Evaluation of the leaf disks is conducted 11 to 14 days after inoculation and the activity is derived from the relation of the treated vs untreated, infested check. (100=no disease, no damage to the leaf, 0=high infestation, leaf damaged heavily). The rates of the active ingredients used are given in the tables as g active ingredient (a.i.)/ha.

[2] = system: Mycosphaerella arachidis syn. Cercospora arachidicola; assay: Example C1: mixtures against Mycosphaerella arachidis syn. Cercospora arachidicola (brown leaf spot), liquid culture; assay type: cell-based; details: single component, 100-0 scale (100=no disease growth)
From the text: as §1, §2, §3
(§4) Mycelia fragments or conidia suspensions of a fungus prepared either freshly from liquid cultures of the fungus or from cryogenic storage, are directly mixed into nutrient broth. DMSO solutions of the test compound (max. 10 mg/mL) are diluted with 0.025% Tween20 by a factor of 50 and 10 μl of this solution is pipetted into a microtiter plate (96-well format). The nutrient broth containing the fungal spores/mycelia fragments is then added to give an end concentration of the tested compound. The test plates are incubated in the dark at 24° C. and 96% relative humidity. The inhibition of fungal growth is determined photometrically after 2 to 7 days, depending on the pathosystem, and percent antifungal activity relative to the untreated check is calculated.
(§5) Conidia of the fungus from cryogenic storage were directly mixed into nutrient broth (PDB potato dextrose broth). A DMSO solution of the test compounds was placed into a microtiter plate (96-well format) and the nutrient broth containing the fungal spores was added to it.
The following mixture compositions at the reported concentration (in ppm) in tables C1-3 and C1-4 gave the following disease control in this test Mycosphaerella arachidis syn. Cercospora arachidicola (Brown leaf spot of peanut). Fungicidal activity was evaluated on a 100-0 scale (100=no disease growth; 0=well completely covered by mycelium).

[3] = system: Septoria glycines; assay: Example C3: mixtures against Septoria glycines (brown spot), liquid culture; assay type: cell-based; details: for inhibition at 0.1 ppm / inhibition at 0.3 ppm: Septoria glycines, read-out: Activity (%)
From the text: This occurs whenever the action of an active ingredient combination is greater than the sum of the actions of the individual components. The action to be expected E for a given active ingredient combination obeys the so-called COLBY formula and can be calculated as follows (COLBY, S. R. “Calculating synergistic and antagonistic responses of herbicide combination”. Weeds, Vol. 15, pages 20-22; 1967): • ppm=milligrams of active ingredient (=a.i.) per liter of spray mixture • X=% action by active ingredient A) using p ppm of active ingredient • Y=% action by active ingredient B) using q ppm of active ingredient.
as §2, §3
as §4, with “The nutrient broth containing the fungal spores/mycelia fragments is then added to give an end concentration of the tested compound.” left out
Conidia of the fungus harvested from a fresh culture grown on artificial media, were directly mixed into nutrient broth (PDB potato dextrose broth). A DMSO solution of the test compounds was placed into a microtiter plate (96-well format) and the nutrient broth containing the fungal spores was added to it.
Fungicidal activity was evaluated on a 100-0 scale (100=no disease growth; 0=well completely covered by mycelium).

[4] = system: Glomerella lagenarium syn. Colletotrichum lagenarium; assay: Example C4: mixtures against Glomerella lagenarium syn. Colletotrichum lagenarium (anthracnose), liquid culture; assay type: cell-based; details: single component; for inhibition at 0.3 ppm / inhibition at 0.1 ppm: Colletotrichum orbiculare
From the text: as §1, §2, §3, §4, §5
The following mixture compositions at the reported concentration (in ppm) in tables C4-3 and C4-4 gave the following disease control in this test (Glomerella lagenarium syn. Colletotrichum lagenarium). Fungicidal activity was evaluated on a 100-0 scale (100=no disease growth; 0=well completely covered by mycelium).

[5] = system: Septoria tritici; assay: Example C2: mixtures against Septoria tritici (leaf blotch), liquid culture; assay type: cell-based; details: for inhibition at 0.3 ppm: read-out: Activity (%)
From the text: as §1, §2, §3, §4, §5
The following mixture compositions at the reported concentration (in ppm) in tables C2-3 to C2-5 gave the following disease control in this test Septoria tritici (leaf blotch). Fungicidal activity was evaluated on a 100-0 scale (100=no disease growth; 0=well completely covered by mycelium).

[6] = system: Corynespora cassiicola; assay: Example C5: mixtures against Corynespora cassiicola (target leaf spot), liquid culture; assay type: cell-based; details: Corynespora cassiicola, single component
From the text: as §1, §2, §3, §4
Conidia of the fungus from cryogenic storage were directly mixed into nutrient broth (PDB potato dextrose broth). A DMSO solution of the test compounds was placed into a microtiter plate (96-well format) and the nutrient broth containing the fungal spores was added to it. The test plates were incubated at 24 C and the inhibition of growth was determined photometrically after 3-4 days at 620 nm.
The following mixture compositions at the reported concentration (in ppm) in tables C4-3 and C4-4 gave the following disease control in this test (Corynespora cassiicola). Fungicidal activity was evaluated on a 100-0 scale (100=no disease growth; 0=well completely covered by mycelium).

[7] = system: Puccinia recondita (Brown rust); assay: Example B: comparative biological activity against Puccinia recondita (brown rust), curative, wheat leaf segments; assay type: in vivo; details: 8 dpi
Experimental: Method; Wheat leaf segments are placed on agar in multiwell plates (24-well format). The leaf segments are inoculated with a spore suspension of the fungus and sprayed with test solutions 1 day after inoculation. After appropriate incubation the activity of a compound is assessed 8 dpi (days after inoculation) as curative fungicidal activity.
The data are presented as the percentage of disease control of each compound for the biological tests and testing rates described below in table B1.

[8] = single component, 0.1 ppm, 100-0 scale (100=no disease growth)
[9] = single component, 0.3 ppm, 100-0 scale (100=no disease growth)
[10] = single component, 0.3 ppm, 100-0 scale
[11] = Zymoseptoria tritici, single component, 0.3 ppm, 100-0 scale

mancozeb [reference compound]
Observed Activity (% of untreated) ([1]; 225 g/ha): 27%
Observed Activity (% of untreated) ([1]; 450 g/ha): 39%
Activity (%) ([2]; 0.1 ppm): 0%
Activity (%) ([2]; 0.3 ppm): 0%
Activity (%) [3, 8]: 0%
Activity (%) [3, 9]: 0%
Activity (%) ([4]; 0.1 ppm): 0%
Activity (%) ([4]; 0.3 ppm): 20%

CC(O)(Cn1cncn1)c1ccc(Oc2ccc(Br)cc2)nc1C(F)(F)F (centres unmarked) [2-[6-(4-bromophenoxy)-2-(trifluoromethyl)-3-pyridyl]-1-(1,2,4-triazol-1-yl)propan-2-ol]
inhibition at 0.3 ppm ([4]; 0.3 ppm): 0%

N#Cc1c[nH]cc1-c1cccc2c1OC(F)(F)O2 [fludioxonil]
inhibition at 0.1 ppm [3]: 0%
inhibition at 0.3 ppm [3]: 20%
inhibition at 0.3 ppm ([5]; Zymoseptoria tritici): 20%

CC(O)(Cn1cncn1)c1ccc(Oc2ccc(Cl)cc2)cc1C(F)(F)F (centres unmarked) [mefentrifluconazole]
Activity (%) ([4]; 0.3 ppm): 0%

COc1ccnc(C(=O)N[C@H]2COC(=O)[C@H](Cc3ccccc3)[C@@H](OC(=O)C(C)C)[C@H](C)OC2=O)c1OCOC(=O)C(C)C [fenpicoxamid]
Activity (%) ([4]; 0.1 ppm): 20%
Activity (%) ([4]; 0.3 ppm): 70%

CC(C)C1C2CCC1c1c(NC(=O)c3cn(C)nc3C(F)F)cccc12 (centres unmarked) [isopyrazam]
Activity (%) ([3]; single component, 0.1 ppm): 70%
Activity (%) [3, 8]: 70%
Activity (%) ([3]; single component, 0.3 ppm): 70%
Activity (%) [3, 9]: 70%
Activity (%) [5, 8]: 50%
Activity (%) [5, 10]: 70%

N#Cc1c(Cl)c(Cl)c(Cl)c(C#N)c1Cl [chlorothalonil, reference compound]
inhibition at 450 g/ha ([1]; 450 g/ha): 8%
inhibition at 900 g/ha [1]: 7%
inhibition at 0.1 ppm ([2]; Mycosphaerella arachidis, 0.1 ppm): 20%
inhibition at 0.1 ppm [3, 8]: 0%
inhibition at 0.3 ppm [3, 9]: 20%
inhibition at 0.1 ppm ([5]; Zymoseptoria tritici, single component, 0.1 ppm, 100-0 scale (100=no disease growth)): 20%
inhibition at 0.3 ppm [5, 11]: 50%

O=C(Nc1ccccc1F)c1ccc(-c2noc(C(F)(F)F)n2)cc1 [N-(2-fluorophenyl)-4-[5-(trifluoromethyl)-1,2,4-oxadiazol-3-yl]benzamide]
inhibition at 10 ppm ([6]; 10 ppm): 0%
inhibition at 20 ppm ([6]; 20 ppm): 0%
inhibition at 10 ppm ([5]; Zymoseptoria tritici, single component, 10 ppm, 100-0 scale): 0%
inhibition at 20 ppm ([5]; Zymoseptoria tritici, single component, 20 ppm, 100-0 scale): 0%

Cc1ccc(C(=O)OCc2ccc(Oc3ccccc3)cc2)c(N)n1 [aminopyrifen]
Activity (%) ([4]; 0.1 ppm): 20%
Activity (%) ([4]; 0.3 ppm): 50%

Cc1nc2c(F)c(F)ccc2cc1Oc1cccc(F)c1C(C)(C)O [ipflufenoquin, reference compound]
Activity (%) ([2]; 0.3 ppm): 0%
Activity (%) ([3]; single component, 0.1 ppm): 0%
Activity (%) [3, 8]: 0%
Activity (%) ([3]; single component, 0.3 ppm): 20%
Activity (%) [3, 9]: 20%
Activity (%) [5, 8]: 20%
Activity (%) [5, 10]: 20%
Activity (%) ([4]; 0.1 ppm): 50%

O=C1c2ccccc2C(=O)N1SC(Cl)(Cl)Cl [folpet, reference compound]
inhibition at 450 g/ha ([1]; 450 g/ha): 4%
inhibition at 900 g/ha [1]: 13%
inhibition at 0.3 ppm ([2]; Mycosphaerella arachidis, 0.3 ppm): 20%
inhibition at 0.1 ppm [3, 8]: 0%
inhibition at 0.3 ppm [3, 9]: 0%
inhibition at 0.3 ppm [5, 11]: 20%
inhibition at 0.1 ppm ([4]; 0.1 ppm): 20%
inhibition at 0.3 ppm ([4]; 0.3 ppm): 70%

CO/C=C(\Oc1cc(C#CC2CCCCC2)ccc1C)C(=O)OC [Reference Compound Z-1, reference compound]
control (%) ([7]; 20 ppm): 0%
control (%) ([7]; 60 ppm): 0%
control (%) ([7]; 200 ppm): 0%

CO/C=C(\Oc1cccc(C(C)(C)C)c1)C(=O)OC [Reference Compound Z-2, reference compound]
control (%) ([7]; 20 ppm): 0%
control (%) ([7]; 60 ppm): 0%
control (%) ([7]; 200 ppm): 0%

Cn1cc(C(=O)Nc2cccc3c2[C@@H]2CC[C@H]3C2=C(Cl)Cl)c(C(F)F)n1 (racemic) [benzovindiflupyr]
Activity (%) ([3]; single component, 0.1 ppm): 70%
Activity (%) [3, 8]: 70%
Activity (%) [5, 8]: 50%
Activity (%) [5, 10]: 70%
Activity (%) ([4]; 0.1 ppm): 50%

CC(C1CC1)C(O)(Cn1cncn1)c1ccc(Cl)cc1 (centres unmarked) [cyproconazole]
inhibition at 0.1 ppm [3, 8]: 20%
inhibition at 0.3 ppm [5, 11]: 50%

OC(Cc1ccccc1Cl)(Cn1nc[nH]c1=S)C1(Cl)CC1 (centres unmarked) [prothioconazole]
inhibition at 0.1 ppm ([4]; 0.1 ppm): 20%
inhibition at 0.3 ppm ([4]; 0.3 ppm): 70%
